According to patent US9365597B2, “Mitochondria-targeted inhibitors of cytochrome c peroxidase for protection from apoptosis” (Brock University, priority 2011, dated 2016):

Tests used:
C57BL/6NTac female mice [1] = test: Survival of mice after 9.25 Gy total body irradiation, linear accelerator; format: in vivo, mouse; details: for Overall Survival (52 days): p versus irradiated mice / Survival Over First 20 Days: p versus irradiated mice: log-rank
Procedure: C57BL/6NTac female mice were exposed to total body irradiation to a dose of 9.25 Gy using a linear accelerator (n=10-23 mice per group). The mice were injected i.p. with TPP-IOA (5 mg per kg body weight in 100 μl of water containing 25% ethanol) at 1 h or 10 min before irradiation or 10 min, 5 or 24 h after irradiation. Mice exposed to: total body irradiation at the dose of 9.25 Gy only (black circles); to total body irradiation at the dose of 9.25 Gy and injected with TPP-IOA (5 mg per kg body weight) 10 min (grey circles), 5 h (downward-pointing triangles) and 24 h (lower grey squares) thereafter. Mice injected with TPP-IOA (5 mg per kg body weight) 10 min (upper grey squares) and 1 h (upward-pointing triangles) before total body irradiation (9.25 Gy).
C57BL/6NTac female mice were anaesthetized with Nembutal (1 mg per 20 g mouse), irradiated to a total body dose of 9.25 Gy using either a Shepherd Mark 1 Model 68 cesium irradiator at a dose rate of 80 cGy min^−1 (31-35 mice per group) or a Varian TrueBeam linear accelerator (Varian Medical Systems) at 100 monitor units or 100 cGy min^−1 using 6 MV photons with a 40 cm×40 cm field at 100 SSD (10-23 mice per group). Mice were injected intraperitoneally (i.p.) with 5 mg per kg body weight of TPP-IOA in a 100 μl volume of water containing 25% ethanol at 1 h before irradiation, 10 min before irradiation, 10 min after irradiation, 5 h after irradiation and 24 h after irradiation. Other groups were injected i.p. with 2.5 mg per kg body weight of TPP-IOA or 5 mg per kg body weight of TPP-ISA 10 min after irradiation. The mice were followed for the development of haematopoietic syndrome (at which time they were killed).
The log-rank test was used for three analyses: the comparison of overall survival that is defined as the time from the date of radiation to the date of death for all mice under study; the comparison of short-term survival over the first 20 days, that is, the overall survival count at 20 days; and the comparison of conditional survival in mice surviving 20 or more days, that is, the time from the date of radiation to the date of death for all mice who survived 20 days or longer after radiation. All these comparisons were made between each of the treated groups and the radiation-only control group.

C57BL/6NTac female mice [2] = test: Health of non-irradiated mice after i.p. injection; format: in vivo, mouse; details: i.p. 5 mg per kg body weight, period of study 52 days
[3] = Hydrolysis of TPP-IOA by cytosol and mitochondrial fractions of mouse embryonic cells (HPLC); format: in vitro ADME
Procedure: Incubations were carried out in 0.1 M phosphate buffer (pH 7.0) for 25 min at 37° C.; and reaction was stopped with CH3CN denatured proteins were centrifuged, and the supernatant was subjected to HPLC analysis. The volume of samples was 1 ml.
To test this, assessments of esterase activity of mitochondria and cytosolic fractions isolated from mouse embryonic cells were performed based on HPLC measurements of TPP-IOA (FIG. 4). […] Thus, both TPP-IOA and its de-esterifed form, IOA, could be present in mitochondria of mouse embryonic cells.

[4] = Compartmentalization of TPP-IOA in mouse embryonic cells and subcellular fractions (HPLC, ESI-MS); format: in vitro ADME
Procedure: Mitochondrial fractions were isolated by differential centrifugation. Briefly, cells were suspended in mitochondria isolation buffer (pH 7.4; MIB) containing mannitol (210 mM), sucrose (70 mM), HEPES (10 mM), EDTA (1 mM) and protease inhibitor cocktail. Cells were lysed by Dounce homogenization. Unbroken cells, nuclei and debris were removed by 5 min centrifugation at 600×g at 4° C. Mitochondria, obtained by centrifugation at 10,000×g (10 min), were washed once with MIB.
Mouse embryonic cells (2×10^6) were seeded in 100 mm cell culture dishes and let attached overnight. Thereafter, the cells were incubated with TPP-IOA (10 μM) in PBS at 37° C. for 30 min, washed with PBS (2×5 mL), and collected by trypsinization. Mitochondria were isolated as described above. In mitochondria, TPP-IOA was analyzed by HPLC after precipitation of proteins with CH3CN (final concentration, 70%; incubation time, 15 min at 4° C.; centrifugation, 5 min at 10,000×g). TPP-IOA from cytosolic fractions was extracted by following the protocol of Folch et al.^37 and then re-dissolved in a minimal volume of methanol. […] Detection of TPP-IOA was performed with a SPD-M10A photodiode array detector (Shimadzu, Kyoto, Japan) following the specific UV spectrum of the triphenylphosphonium function (λmax=224, 264 and 274 nm; FIG. 4A, Inset). TPP-IOA was eluted as single peak with retention time of 4 min.

mouse embryonic cells [5] = test: ATP levels in mouse embryonic cells (bioluminescent kit); format: cell-based
Procedure: ATP levels in cells were measured using ATP bioluminescent somatic cell assay kit (St. Louis, Mo.) according to the manufacturer's instructions.

mouse embryonic cells [6] = test: γ-Irradiation induced apoptosis in mouse embryonic cells (PS externalization Annexin V/PI, caspase 3/7, cyt c release); format: cell-based; details: for necrotic cells (PI-positive, Annexin V-positive) after irradiation and treatment / apoptotic cells (PI-negative, Annexin V-positive) after irradiation and treatment: 10 Gy; for necrotic cells (PI-positive, Annexin V-positive) after irradiation and treatment: irradiated only 12.9%; for apoptotic cells (PI-negative, Annexin V-positive) after irradiation and treatment: irradiated only 28.9%
Procedure: Mouse embryonic cells were seeded on a 35 mm dish at a cell density of 5×10^4/dish, and allowed to attach overnight. The cells were γ-irradiated at a dose of 10 Gy using a Shepherd model 143-45A irradiator (J.L. Shepherd & Associates, CA). Ten min after irradiation, different concentrations of TPP-ISA or TPP-IOA (2.5 and 5 μM) were added and cells were incubated at 37° C. in 5% CO2 for 48 h. Then, cells were harvested for measuring phosphatidylserine externalization by an Annexin V/PI kit and caspase 3/7 activity using a Caspase-Glo® 3/7 Assay kit. Data are means±S.D., n=3. *p<0.01 vs. irradiated only cells.
Phosphatidylserine externalization was determined by an Annexin V-FITC apoptosis detection kit (Biovision) according to the manufacturer's instructions.
Caspase-3/7 activity was measured using a luminescence Caspase-Glo 3/7 assay kit (Promega) according to the manufacturer's instructions.
Cells were collected after 48 h post-irradiation incubation and resuspended in lysis buffer containing 0.05% digitonin for 4 min on ice. Supernatants were collected after centrifugation for 10 min at 10,000 g. Equal amounts of protein were subject to 15% SDS-PAGE, transferred onto a nitrocellulose membrane, and probed with antibodies against cyt c (clone 7H, 8.2; C12, BD Pharmingen) or actin (Novus) (loading control) followed by horseradish peroxidase-coupled detection. The protein band profile was analysed by densitometry using Labworks image acquisition and analysis software (UVP).

[7] = 2.5 mg/kg body weight i.p., 10 min after 9.25 Gy
[8] = 5 mg/kg body weight i.p., 10 min after 9.25Gy
[9] = 5 mg/kg body weight i.p., 10 min before 9.25Gy
[10] = 5 mg/kg body weight i.p., 1 hr before 9.25Gy
[11] = 5 mg/kg body weight i.p., 5 hr after 9.25Gy
[12] = 5 mg/kg body weight i.p., 24 hr after 9.25Gy

SMILES: CCCCCCC(C/C=C\CCCCCCCC(=O)OCCC[P+](c1ccccc1)(c1ccccc1)c1ccccc1)n1ccnc1.[Br-] (stereo not shown) [TPP-IOA]
- mitigating the mice against irradiation, lower dose (C57BL/6NTac female mice [1]; 2.5 mg per kg body weight, 10 min after irradiation): not effective
- Overall Survival (52 days): Median Survival (95% Confidence Interval) (C57BL/6NTac female mice [1]; [7]): 17 (14, —) days
- Survival Over First 20 Days: Median Survival (95% Confidence Interval) (C57BL/6NTac female mice [1]; [7]): 17 (14, —) days
- Overall Survival (52 days): p versus irradiated mice (C57BL/6NTac female mice [1]; [7]): 0.0525
- Survival Over First 20 Days: p versus irradiated mice (C57BL/6NTac female mice [1]; [7]): 0.0525
- survival when given at later time points after irradiation (C57BL/6NTac female mice [1]; 5 mg per kg, 5 or 24 h after irradiation): significant increase in survival
- protection when given before irradiation (C57BL/6NTac female mice [1]; 5 mg per kg, 10 min or 1 h before irradiation): protective
- Overall Survival (52 days): Median Survival (95% Confidence Interval) (C57BL/6NTac female mice [1]; [8]): — (—, —)
- Survival Over First 20 Days: Median Survival (95% Confidence Interval) (C57BL/6NTac female mice [1]; [8]): — (—, —)
- Overall Survival (52 days): p versus irradiated mice (C57BL/6NTac female mice [1]; [8]): <0.0001
- Survival Over First 20 Days: p versus irradiated mice (C57BL/6NTac female mice [1]; [8]): <0.0001
- Overall Survival (52 days): p versus irradiated mice (C57BL/6NTac female mice [1]; [9]): 0.0009
- Survival Over First 20 Days: p versus irradiated mice (C57BL/6NTac female mice [1]; [9]): 0.0009
- Overall Survival (52 days): p versus irradiated mice (C57BL/6NTac female mice [1]; [10]): 0.0230
- Survival Over First 20 Days: p versus irradiated mice (C57BL/6NTac female mice [1]; [10]): 0.0230
- Overall Survival (52 days): p versus irradiated mice (C57BL/6NTac female mice [1]; [11]): 0.0030
- Survival Over First 20 Days: p versus irradiated mice (C57BL/6NTac female mice [1]; [11]): 0.0030
- Overall Survival (52 days): Median Survival (95% Confidence Interval) (C57BL/6NTac female mice [1]; [12]): 18 (13, —) days
- Survival Over First 20 Days: Median Survival (95% Confidence Interval) (C57BL/6NTac female mice [1]; [12]): 18 (13, —) days
- Overall Survival (52 days): p versus irradiated mice (C57BL/6NTac female mice [1]; [12]): 0.0416
- Survival Over First 20 Days: p versus irradiated mice (C57BL/6NTac female mice [1]; [12]): 0.0416
- adverse side effects in non-irradiated mice (C57BL/6NTac female mice [2]): no adverse side effects were noticed
- hydrolysis rate in mitochondria ([3]; 1 mg protein/ml, pH 7.0, 37° C.): comparable to that in the cytosolic fraction
- hydrolysis of the ester bond by endogenous esterases ([3]; mitochondria and cytosol of mouse embryonic cells): hydrolysis of TPP-IOA takes place in both mitochondria and the cytosol
- concentration of TPP-IOA in mitochondria ([4]; assuming mitochondria are ~15-25% of cell volume): ~5000 µM
- subcellular distribution of TPP-IOA ([4]; mouse embryonic cells, 10 μM, 30 min): most of the TPP-IOA was present in mitochondria
- effect on ATP levels (mouse embryonic cells [5]): Neither TPP-IOA nor TPP-ISA had any effect
- necrotic cells (PI-positive, Annexin V-positive) after irradiation and treatment (mouse embryonic cells [6]): 8.2%
- apoptotic cells (PI-negative, Annexin V-positive) after irradiation and treatment (mouse embryonic cells [6]): 14.8%
- decrease in the number of apoptotic cells (mouse embryonic cells [6]; versus irradiated only cells): twofold
- reduction in the number of necrotic cells (mouse embryonic cells [6]; versus irradiated only cells): 1.6 fold

SMILES: CCCCCCC(CCCCCCCCCCC(=O)OCCC[P+](c1ccccc1)(c1ccccc1)c1ccccc1)n1ccnc1.[Br-] (stereo not shown) [TPP-ISA]
- Overall Survival (52 days): p versus irradiated mice (C57BL/6NTac female mice [1]; [8]): 0.0114
- Survival Over First 20 Days: p versus irradiated mice (C57BL/6NTac female mice [1]; [8]): 0.0114
- adverse side effects in non-irradiated mice (C57BL/6NTac female mice [2]): no adverse side effects were noticed
- effect on ATP levels (mouse embryonic cells [5]): Neither TPP-IOA nor TPP-ISA had any effect
- necrotic cells (PI-positive, Annexin V-positive) after irradiation and treatment (mouse embryonic cells [6]): 7.8%
- apoptotic cells (PI-negative, Annexin V-positive) after irradiation and treatment (mouse embryonic cells [6]): 13.9%
